In the NIST ThermoML archive (doi:10.1021/je2005209):
± gives the expanded uncertainty stated by the source.

Details: 351.55 K; Liquid; Ebulliometric method (Recirculating still)

- vapor or sublimation pressure: 101.32 ± 1.1 kPa
Structure (SMILES): CCO [ethanol]
